Values of other authors, collected in patent publication US11400063B2, “Early administration of low-dose colchicine after myocardial infarction” (INSTITUT DE CARDIOLOGIE DE MONTREAL, priority 2019, dated 2022).

Key:
stable coronary disease = details: CANTOS; cited from earlier work
[1] = CIRT; cited from earlier work

| Molecule | incidence of fatal infections (stable coronary disease) | lower risk of cardiovascular events than with placebo (stable coronary disease) | cardiovascular outcomes or plasma markers of inflammation [1] |
| --- | --- | --- | --- |
| canakinumab: injectable monoclonal antibody inhibiting interleukin-1β | slightly higher incidence | 15% | – |
| CN(Cc1cnc2nc(N)nc(N)c2n1)c1ccc(C(=O)N[C@@H](CCC(=O)O)C(=O)O)cc1 [methotrexate] | – | – | did not affect |
